Where two headings read alike, the source gives them in different places.

A short description of data set [1]: Parallel Artificial Membrane Permeability Assay (PAMPA) at pH 6.8. The format is physicochemical. An excerpt: The physicochemical properties of relevance for the absorption of the compound, such as the solubility and the membrane permeability, especially at a pH close to neutral pH can be measured using the procedure as described by L. ZHOU et al. in JOURNAL OF PHARMACEUTICAL SCIENCES, VOL. 96, NO. 11, p. 3052-3071 (2007) for the solubility at pH 6.8 and the procedure as described by F. Wohnsland and B. Faller in Journal of Medicinal Chemistry Vol 44, p. 923-930 (2001) for the Parallel Artificial Membrane Permeability Assay (PAMPA) at pH 6.8.
The following permeability log Pe was measured for compound of formula (I) as exemplified below: […]
In general terms: In PAMPA a lipid-coated filter parts donor from acceptor wells.

Data set [2] concerns PKB Ser473 phosphorylation in Rat1-myr-HA-p110 alpha cells. Kind of data set: Reverse protein array, PKB Ser473 phosphorylation in Rat1-myr-HA-p110 alpha cells. It is filed as cell-based. Conditions: Rattus norvegicus, 0.5 h, 30 minutes compound incubation, read-out: p-PKB/IC50_alpha. On the procedure: (§1) No. 15140-114) and 10 μg/ml Puromycine (Sigma, cat. No. P9620).
(§2) The Rat1-myr-HA-p110 alpha, beta and delta cells were trypsinized and counted with a CASY TT cell counter (Schärfe System GmbH, Reutlingen Germany). The cells were diluted in fresh DMEM complete medium and 3×10^4 cells/150 μl/well seeded in 96-well TPP-tissue culture plates (TPP, cat. No. 92096). The plates were incubated at 37° C. and 5% CO2 under humidified condition for at least 20 h. Compound of formula I working solutions were prepared freshly as serial 8 step dilutions (vol/vol) in DMSO on the day of the experiment. The working solutions were further diluted 1/500 in cell culture medium to get final compound concentrations of 10, 3.333, 1.111, 0.370, 0.123, 0.041, 0.014, 0.005 μM. The final DMSO concentration was kept constant at 0.2%. cell culture medium containing 0.2% DMSO was used as vehicle treatment control. Post incubation, the cells were treated with the serial compound dilution. 50 μl of the compound medium mixture was added to the wells containing cells and 150 μl DMEM medium and incubated for 30 minutes (37° C., 5% CO2). After 30 minutes of incubation, the medium mixture was quickly removed by aspiration. For cell lysis, a mixture of 10% CLB1 CeLyA lysis buffer (Zeptosens, cat. No. 9000), 90% CSBL1 CeLyA spotting buffer (Zeptosens, cat. No. 9020) was freshly prepared and supplemented with 1% Octyl β-D-glucopyranoside (SIGMA, cat. No. 08001-5G) and 1 mM Na-Orthovanadate (Sigma, cat No. S-6508). 50 μl of the described lysis buffer mix was added to each well, followed by 10 minutes of incubation on ice. After an additional freeze-thaw cycle, another 50 μl of the lysis buffer mix without Octyl β-D-glucopyranoside was added to the wells, and 90 μl of the cell lysate was transferred to a 96-well V-bottom plate (Fisher Scientific, cat. No. 6067Y), followed by a centrifugation step (5 min, 1500 rpm at 19° C. in an Eppendorf 5810R centrifuge) to remove the unlysed cell debris.
(§3) The samples were spotted onto ZeptoMARK® PWG protein microarray chips (Zeptosens, Witterswil, Switzerland) with the piezoelectric microdispense-based, non-contact Nano-Plotter 2.1 (GeSiM, Grosserkmannsdorf, Germany). Each sample was spotted at 4 different sample concentrations (d1=100%, d2=75%, d3=50%, d4=25%) by diluting the cell lysate with the corresponding volume of lysis buffer mix. After spotting the ZeptoMARK® protein microarrays, the chips are incubated for 1 hour at 37° C. To receive a uniform blocking result, the CeLyA blocking buffer BB1 (Zeptosens, cat. No. 9040) is administered via an ultrasonic nebulizer. After 20 minutes of blocking the chips are extensively rinsed with deionized water (Milli-Q quality, 18MΩ×cm) and dried in a nitrogen air flow.
(§4) After the sample spotting and blocking procedure, the ZeptoMARK® chips were transferred to the ZeptoCARRIER (Zeptosens, cat. No. 1100), whose six flow cells individually address the six arrays on a chip, and washed twice with 200 μl CAB1 CeLyA assay buffer (Zeptosens, cat. No. 9032). The assay buffer was then aspirated and each compartment incubated with 100 μl of the primary target antibody (pAkt Ser473; CST#9271) at RT over night. Post incubation, the primary antibody was removed, the arrays washed twice with CAB1 buffer and further incubated with 100 μl of Alexa fluor 647-labeled anti rabbit IgG Fab fragments (Invitrogen; #Z25305) for one hour at RT in the dark. After incubation, the arrays were washed twice with 200 μl CAB1 buffer. The fluorescence of the target-bound Fab fragments is read out on the ZeptoReader (Zeptosens, Witterswil, Switzerland) using a laser (excitation wavelength 635 nm) and a CCD camera. The fluorescence signal was assessed with exposure times of 1, 3, 5 and 10 seconds, depending on the intensity of the signal. The resulting four images taken per array are stored as 16-bit TIF files. […]

Data set [3] relates to PKB Ser473 phosphorylation in Rat1-myr-HA-p110 beta cells. Kind of data set: Reverse protein array, PKB Ser473 phosphorylation in Rat1-myr-HA-p110 beta cells. It is filed as cell-based. Particulars: Rattus norvegicus, 0.5 h, 30 minutes compound incubation, read-out: p-PKB/IC50_beta. On the procedure: as §1, §2, §3, §4
The test system of data set [4] is PKB Ser473 phosphorylation in Rat1-myr-HA-p110 delta cells. In words: Reverse protein array, PKB Ser473 phosphorylation in Rat1-myr-HA-p110 delta cells. It is filed as cell-based. Conditions: Rattus norvegicus, 0.5 h, 30 minutes compound incubation, read-out: p-PKB/IC50_delta. On the procedure: as §1, §2, §3, §4
Data set [5] concerns S6 Ribosomal Protein phosphorylation Ser235/236 in TSC1 null mouse embryo fibroblast (MEF) cells. In words: Reverse protein array, S6 Ribosomal Protein phosphorylation in TSC1 null MEF cells. The format is cell-based. Conditions: 1 h, TSC1-/- MEFs, 60 minutes. As for the experimental part:
TSC1−/− MEFs cells (provided by D. Kwiatkowski), were cultivated in Dulbecco's modified Eagle's medium (DMEM high Glucose, GIBCO, cat. No. 41956-039) supplemented with 10% heat inactivated fetal bovine calf serum (Amimed, cat. No. 2-01F16-I), 1% L-Glutamine (Invitrogen, cat. No. 25030-02), 1% penicillin-streptomycin (GIBCO, cat. No. 15140-114) at 37° C. in a 5% CO2 and 95% relative humidity atmosphere incubator.
The TSC1−/− cells were trypsinized and counted with a CASY TT cell counter (Schärfe System GmbH, Reutlingen Germany). The cells were diluted in fresh DMEM complete medium and 0.75×10^4 cells/150 μl/well seeded in 96-well TPP-tissue culture plates (TPP, cat. No. 92096). The plates were incubated at 37° C. and 5% CO2 under humidified condition for at least 20 h. Working solutions were prepared freshly as serial 8 step dilutions (vol/vol) in DMSO on the day of the experiment. The working solutions were further diluted 1/5000 in cell culture medium to get final compound concentrations of […]. The final DMSO concentration was kept constant at 0.02%. cell culture medium containing 0.02% DMSO was used as vehicle treatment control. Post incubation, the cells were treated with the serial compound dilution. 50 μl of the compound medium mixture was added to the wells containing cells and 150 μl DMEM medium and incubated for 60 minutes (37° C., 5% CO2). After 60 minutes of incubation, the medium mixture was quickly removed by aspiration. For cell lysis, a mixture of 10% CLB1 CeLyA lysis buffer (Zeptosens, cat. No. 9000), 90% CSBL1 CeLyA spotting buffer (Zeptosens, cat. No. 9020) was freshly prepared and supplemented with 1% Octyl β-D-glucopyranoside (SIGMA, cat. No. 08001-5G) and 1 mM Na-Orthovanadate (Sigma, cat No. S-6508). 50 μl of the described lysis buffer mix was added to each well, followed by 10 minutes of incubation on ice. After an additional freeze-thaw cycle, another 50 μl of the lysis buffer mix without Octyl β-D-glucopyranoside was added to the wells, and 90 μl of the cell lysate was transferred to a 96-well V-bottom plate (Fisher Scientific, cat. No. 6067Y), followed by a centrifugation step (5 min, 1500 rpm at 19° C. in an Eppendorf 5810R centrifuge) to remove the unlysed cell debris.
The spotting of the chips follows the previous described method.
The signal detection and the data analysis follows the previous described method using the pS6 ribosomal protein Ser235/236 (CST, cat. No. #2211) as a primary antibody.

In the case of `Cc1ncccc1-n1c(=O)n(C)c2cnc3ccc(-c4ccc5nccn5c4)cc3c21` [Example 2.23, 8-Imidazo[1,2-a]pyridin-6-yl-3-methyl-1-(2-methyl-pyridin-3-yl)-1,3-dihydro-imidazo[4,5-c]quinolin-2-one], the “HT-Perm logPe pH6.8” value in data set [1] is reported as −5.3. The IC50 is 64.1 nM in data set [2], 273 nM in data set [3], 1060 nM in data set [4] and 37 nM in data set [5] (read-out: p-S6 IC50).
Turning to `CCOc1ccc(-c2ccc3ncc4c(c3c2)n(-c2ccc(OC)nc2OC)c(=O)n4C)cn1` [Example 8.2, 1-(2,6-Dimethoxy-pyridin-3-yl)-8-(6-ethoxy-pyridin-3-yl)-3-methyl-1,3-dihydro-imidazo[4,5-c]quinolin-2-one], the “HT-perm/logPe pH6.8” value in data set [1] is reported as −4.3. The IC50 in data set [2] was 7.36 nM; in data set [3], 34.6 nM; in data set [4], 113 nM; in data set [5] (read-out: p-S6), 7.69 nM.
Turning to `CNc1ccc(-c2ccc3ncc4c(c3c2)n(-c2ccc(OC)nc2OC)c(=O)n4C)cn1` [Example 8.3, 1-(2,6-Dimethoxy-pyridin-3-yl)-3-methyl-8-(6-methylamino-pyridin-3-yl)-1,3-dihydro-imidazo[4,5-c]quinolin-2-one], the “HT-perm/logPe pH6.8” value in data set [1] was −3.8. Moreover, the IC50 in data set [2] is 4.57 nM; in data set [3] it was less than 4.57 nM; in data set [4], 19.5 nM; in data set [5] (read-out: p-S6) it was 1.05 nM.
Take `COCCOc1cncc(-c2ccc3ncc4c(c3c2)n(-c2ccc(OC)nc2OC)c(=O)n4C)c1` [Example 8.8, 1-(2,6-Dimethoxy-pyridin-3-yl)-8-[5-(2-methoxy-ethoxy)-pyridin-3-yl]-3-methyl-1,3-dihydro-imidazo[4,5-c]quinolin-2-one]: in data set [1], the “HT-Perm logPe pH6.8” value is recorded as −3.8. Moreover, the IC50 stood at 72.6 nM in data set [2], 115 nM in data set [3], 143 nM in data set [4] and 7 nM in data set [5] (read-out: p-S6 IC50).
With `CCOc1ccc(-c2ccc3ncc4c(c3c2)n(-c2ccc(OC)nc2C)c(=O)n4C)cn1` [Example 11.1, 8-(6-Ethoxy-pyridin-3-yl)-1-(6-methoxy-2-methyl-pyridin-3-yl)-3-methyl-1,3-dihydro-imidazo[4,5-c]quinolin-2-one], in data set [1], the “HT-perm/logPe pH6.8” value is reported as −3.8. Also, the IC50 in data set [2] came out at 5.01 nM; in data set [3], 11.7 nM; in data set [4] it was 92.1 nM; in data set [5] (read-out: p-S6) it was 10.6 nM.
`CNc1ncc(-c2ccc3ncc4c(c3c2)n(-c2cncc(C)c2)c(=O)n4C)cn1` [Example 17.2, 3-Methyl-8-(2-methylamino-pyrimidin-5-yl)-1-(5-methyl-pyridin-3-yl)-1,3-dihydro-imidazo[4,5-c]quinolin-2-one]: the IC50 worked out at 46.8 nM in data set [2], 94.6 nM in data set [3], 206 nM in data set [4] and 10 nM in data set [5] (read-out: p-S6 IC50).
Turning to `COc1ncc(-c2ccc3ncc4c(c3c2)n(-c2ccc(C(C)(C)O)nc2C)c(=O)n4C)c(OC)n1` [Example 31.3, 8-(2,4-Dimethoxy-pyrimidin-5-yl)-1-[6-(1-hydroxy-1-methyl-ethyl)-2-methyl-pyridin-3-yl]-3-methyl-1,3-dihydro-imidazo[4,5-c]quinolin-2-one], the “HT-Perm logPe pH6.8” value in data set [1] is listed as −4.1. In addition, the IC50 in data set [2] was 5.3 nM; in data set [3], 132 nM; in data set [4], 26.4 nM; in data set [5] (read-out: p-S6 IC50) it was 1 nM.
For the molecule `CCNc1cc(-c2ccc3ncc4c(c3c2)n(-c2ccc(N3CC[C@H](O)C3)nc2C)c(=O)n4C)cnc1CO` [Example 32.6, 8-(5-Ethylamino-6-hydroxymethyl-pyridin-3-yl)-1-[6-((S)-3-hydroxy-pyrrolidin-1-yl)-2-methyl-pyridin-3-yl]-3-methyl-1,3-dihydro-imidazo[4,5-c]quinolin-2-one], the IC50 in data set [2] was 24.3 nM; in data set [3] it was 39.7 nM; in data set [4], 83.2 nM; in data set [5] (read-out: p-S6 IC50), 8.6 nM.
On to `Cc1nc(N2CC[C@@H](O)C2)ccc1-n1c(=O)n(C)c2cnc3ccc(-c4cncc(C(C)(C)C#N)c4)cc3c21` [Example 34.5, 2-(5-{1-[6-((R)-3-Hydroxy-pyrrolidin-1-yl)-2-methyl-pyridin-3-yl]-3-methyl-2-oxo-2,3-dihydro-1H-imidazo[4,5-c]quinolin-8-yl}-pyridin-3-yl)-2-methyl-propionitrile], for which the IC50 in data set [2] was found to be 30.3 nM; in data set [3] it was 31 nM; in data set [4] it was 84.2 nM; in data set [5] (read-out: p-S6 IC50) it was 2 nM.

Values taken from US20100311714A1, “1H-IMIDAZO[4,5-c]QUINOLINONE COMPOUNDS” (priority 2009, published 2010).
